According to patent US20140249135A1, “PIM KINASE INHIBITORS AND METHODS OF THEIR USE” (NOVARTIS AG, priority 2007, published 2014):

Assays:
Type in all cases: biochemical
[1] = target: Pim1 kinase (Homo sapiens, UniProt P11309); assay: Pim1 ATP depletion assay; details: Pim1 ATP depletion assay; read-out: IC50 (μM) PIM1;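 note: Luciferase-luciferin luminescence readout of residual ATP after PIM1 transfers phosphate to a peptide substrate, 40 µM ATP added, reaction run to roughly half ATP consumption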
Sequence of Pim1 kinase (P11309 whole entry): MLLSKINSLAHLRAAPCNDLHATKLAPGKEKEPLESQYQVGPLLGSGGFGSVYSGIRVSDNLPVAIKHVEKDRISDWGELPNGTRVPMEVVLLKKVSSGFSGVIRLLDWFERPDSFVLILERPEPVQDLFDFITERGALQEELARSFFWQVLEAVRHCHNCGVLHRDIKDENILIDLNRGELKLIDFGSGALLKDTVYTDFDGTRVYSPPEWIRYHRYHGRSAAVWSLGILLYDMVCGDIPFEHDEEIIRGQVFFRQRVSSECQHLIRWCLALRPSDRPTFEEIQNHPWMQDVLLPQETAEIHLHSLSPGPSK

[2] = target: Pim3 kinase (Homo sapiens, UniProt Q86V86); assay: Pim3 ATP depletion assay; details: read-out: IC50 (μM) PIM3
[3] = target: Pim2 kinase (Homo sapiens, UniProt Q9P1W9); assay: Pim2 ATP depletion assay; details: read-out: IC50 (μM) PIM2;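 note: Luciferase-based luminescent readout of ATP remaining after PIM2 phosphorylates a BAD peptide, final 5 nM enzyme, 4 µM ATP, 10 µM peptide, 2.5% DMSO, run to roughly half ATP consumption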
Sequence of Pim2 kinase (Q9P1W9 whole entry): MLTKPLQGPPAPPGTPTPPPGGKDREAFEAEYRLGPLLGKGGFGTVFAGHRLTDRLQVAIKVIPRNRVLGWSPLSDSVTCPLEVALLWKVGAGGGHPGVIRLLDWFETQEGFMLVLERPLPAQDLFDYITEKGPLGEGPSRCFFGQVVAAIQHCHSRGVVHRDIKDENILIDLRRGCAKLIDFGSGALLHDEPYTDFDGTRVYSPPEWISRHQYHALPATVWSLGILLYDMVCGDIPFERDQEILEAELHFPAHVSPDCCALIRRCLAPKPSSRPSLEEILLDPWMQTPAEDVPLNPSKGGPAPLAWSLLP

Measured: IC50

Nc1ncc(-c2ccc(N)c(C(=O)Nc3cnccc3N3CCC[C@H](N)C3)n2)c(N)n1 [Example 417, 3-amino-6-(2,4-diamino-pyrimidin-5-yl)-pyridine-2-carboxylic acid ((S)-3-amino-3,4,5,6-tetrahydro-2H-[1,4′]bi-pyridinyl-3′-yl)-amide]
< 1 µM: all assays above

Nc1ccc(-c2ccc(Cl)cc2F)nc1C(=O)Nc1cnccc1N1CCC[C@H](N)C1 [Example 420, 3-amino-6-(4-chloro-2-fluoro-phenyl)-pyridine-2-carboxylic acid ((S)-3-amino-3,4,5,6-tetra-hydro-2H-[1,4′]bipyridinyl-3′-yl)-amide]
< 1 µM: all assays above

N[C@H]1CCCN(c2ccncc2NC(=O)c2ccc(F)c(-c3ccccc3F)n2)C1 [Example 444, 5-Fluoro-6-(2-fluoro-phenyl)-pyridine-2-carboxylic acid (3-amino-3,4,5,6-tetrahydro-2H-[1,4′]bipyridinyl-3′-yl)-amide]
< 1 µM: all assays above

Nc1ccc(-c2ccc(-c3cccs3)s2)nc1C(=O)Nc1cnccc1N1CCC[C@H](N)C1 [Example 446, 3-Amino-6-[2,2′]bithiophenyl-5-yl-pyridine-2-carboxylic acid (3-amino-3,4,5,6-tetrahydro-2H-[1,4′]bipyridinyl-3′-yl)-amide]
< 1 µM: all assays above

Cc1ccsc1-c1ccc(N)c(C(=O)Nc2cnccc2N2CCC[C@H](N)C2)n1 [Example 448, 3-Amino-6-(3-methyl-thiophen-2-yl)-pyridine-2-carboxylic acid (3-amino-3,4,5,6-tetrahydro-2H-[1,4′]bipyridinyl-3′-yl)-amide]
< 1 µM: all assays above

Nc1ccc(-c2ccsc2)nc1C(=O)Nc1cnccc1N1CCC[C@H](N)C1 [Example 449, 3-Amino-6-thiophen-3-yl-pyridine-2-carboxylic acid (3-amino-3,4,5,6-tetrahydro-2H-[1,4′]bipyridinyl-3′-yl)-amide]
< 1 µM: all assays above

Nc1ccc(-c2ccc(Cl)s2)nc1C(=O)Nc1cnccc1N1CCC[C@H](N)C1 [Example 450, 3-Amino-6-(5-chloro-thiophen-2-yl)-pyridine-2-carboxylic acid (3-amino-3,4,5,6-tetrahydro-2H-[1,4′]bipyridinyl-3′-yl)-amide]
< 1 µM: all assays above

Cc1csc(-c2ccc(N)c(C(=O)Nc3cnccc3N3CCC[C@H](N)C3)n2)c1 [Example 451, 3-Amino-6-(4-methyl-thiophen-2-yl)-pyridine-2-carboxylic acid (3-amino-3,4,5,6-tetrahydro-2H-[1,4′]bipyridinyl-3′-yl)-amide]
< 1 µM: all assays above

CCc1cccc(-c2ccc(N)c(C(=O)Nc3cnccc3N3CCC[C@H](N)C3)n2)c1 [Example 452, 3-Amino-6-(3-ethyl-phenyl)-pyridine-2-carboxylic acid (3-amino-3,4,5,6-tetrahydro-2H-[1,4′]bipyridinyl-3′-yl)-amide]
< 1 µM: all assays above

CC(C)NC(=O)c1ccc(F)c(-c2cccc(C(=O)Nc3cnccc3N3CCC[C@H](N)C3)n2)c1 [Example 453, 6-(2-Fluoro-5-isopropylcarbamoyl-phenyl)-pyridine-2-carboxylic acid (3-amino-3,4,5,6-tetrahydro-2H-[1,4′]bipyridinyl-3′-yl)-amide]
< 1 µM: all assays above

CC(C)c1cccc(-c2ccc(N)c(C(=O)Nc3cnccc3N3CCC[C@H](N)C3)n2)c1 [Example 456, 3-Amino-6-(3-isopropyl-phenyl)-pyridine-2-carboxylic acid (3-amino-3,4,5,6-tetrahydro-2H-[1,4′]bipyridinyl-3′-yl)-amide]
< 1 µM: all assays above

N#CCc1cccc(-c2ccc(N)c(C(=O)Nc3cnccc3N3CCC[C@H](N)C3)n2)c1 [Example 457, 3-Amino-6-(3-cyanomethyl-phenyl)-pyridine-2-carboxylic acid (3-amino-3,4,5,6-tetrahydro-2H-[1,4′]bipyridinyl-3′-yl)-amide]
< 1 µM: all assays above

Nc1ccc(-c2cccc(-c3ccccc3)c2)nc1C(=O)Nc1cnccc1N1CCC[C@H](N)C1 [Example 458, 3-Amino-6-biphenyl-3-yl-pyridine-2-carboxylic acid (3-amino-3,4,5,6-tetrahydro-2H-[1,4′]bipyridinyl-3′-yl)-amide]
< 1 µM: all assays above

Nc1ccc(-c2cccc(Br)c2)nc1C(=O)Nc1cnccc1N1CCC[C@H](N)C1 [Example 459, 3-Amino-6-(3-bromo-phenyl)-pyridine-2-carboxylic acid (3-amino-3,4,5,6-tetrahydro-2H-[1,4′]bipyridinyl-3′-yl)-amide]
< 1 µM: all assays above

Nc1ccc(-c2cccc(C(F)(F)F)c2)nc1C(=O)Nc1cnccc1N1CCC[C@H](N)C1 [Example 460, 3-Amino-6-(3-trifluoromethyl-phenyl)-pyridine-2-carboxylic acid (3-amino-3,4,5,6-tetrahydro-2H-[1,4′]bipyridinyl-3′-yl)-amide]
< 1 µM: all assays above

N#Cc1cccc(-c2ccc(N)c(C(=O)Nc3cnccc3N3CCC[C@H](N)C3)n2)c1 [Example 461, 3-Amino-6-(3-cyano-phenyl)-pyridine-2-carboxylic acid (3-amino-3,4,5,6-tetrahydro-2H-[1,4′]bipyridinyl-3′-yl)-amide]
< 1 µM: all assays above

Nc1ccc(-c2c(F)ccc(OCc3ccccc3Cl)c2F)nc1C(=O)Nc1cnccc1N1CCC[C@H](N)C1 [Example 464, 3-Amino-6-[3-(2-chloro-benzyloxy)-2,6-difluoro-phenyl]-pyridine-2-carboxylic acid (3-amino-3,4,5,6-tetrahydro-2H-[1,4′]bipyridinyl-3′-yl)-amide]
< 1 µM: all assays above

Nc1ccc(-c2c(F)ccc(OCc3ccccc3F)c2F)nc1C(=O)Nc1cnccc1N1CCC[C@H](N)C1 [Example 465, 3-Amino-6-[2,6-difluoro-3-(2-fluoro-benzyloxy)-phenyl]-pyridine-2-carboxylic acid (3-amino-3,4,5,6-tetrahydro-2H-[1,4′]bipyridinyl-3′-yl)-amide]
< 1 µM: all assays above

CCCCOc1ccc(F)c(-c2ccc(N)c(C(=O)Nc3cnccc3N3CCC[C@H](N)C3)n2)c1F [Example 466, 3-Amino-6-(3-butoxy-2,6-difluoro-phenyl)-pyridine-2-carboxylic acid (3-amino-3,4,5,6-tetrahydro-2H-[1,4′]bipyridinyl-3′-yl)-amide]
< 1 µM: all assays above

CC(C)Oc1ccc(F)c(-c2ccc(N)c(C(=O)Nc3cnccc3N3CCC[C@H](N)C3)n2)c1 [Example 467, 3-Amino-6-(2-fluoro-5-isopropoxy-phenyl)-pyridine-2-carboxylic acid (3-amino-3,4,5,6-tetrahydro-2H-[1,4′]bipyridinyl-3′-yl)-amide]
< 1 µM: all assays above

CCCOc1ccc(F)c(-c2ccc(N)c(C(=O)Nc3cnccc3N3CCC[C@H](N)C3)n2)c1 [Example 468, 3-Amino-6-(2-fluoro-5-propoxy-phenyl)-pyridine-2-carboxylic acid (3-amino-3,4,5,6-tetrahydro-2H-[1,4′]bipyridinyl-3′-yl)-amide]
< 1 µM: all assays above

CCOc1ccc(F)c(-c2ccc(N)c(C(=O)Nc3cnccc3N3CCC[C@H](N)C3)n2)c1 [Example 469, 3-Amino-6-(5-ethoxy-2-fluoro-phenyl)-pyridine-2-carboxylic acid (3-amino-3,4,5,6-tetrahydro-2H-[1,4′]bipyridinyl-3′-yl)-amide]
< 1 µM: all assays above

COc1ccc(F)c(-c2ccc(N)c(C(=O)Nc3cnccc3N3CCC[C@H](N)C3)n2)c1 [Example 470, 3-Amino-6-(2-fluoro-5-methoxy-phenyl)-pyridine-2-carboxylic acid (3-amino-3,4,5,6-tetrahydro-2H-[1,4′]bipyridinyl-3′-yl)-amide]
< 1 µM: all assays above

COc1cccc(-c2ccc(N)c(C(=O)Nc3cnccc3N3CCC[C@H](N)C3)n2)c1F [Example 471, 3-Amino-6-(2-fluoro-3-methoxy-phenyl)-pyridine-2-carboxylic acid (3-amino-3,4,5,6-tetrahydro-2H-[1,4′]bipyridinyl-3′-yl)-amide]
< 1 µM: all assays above
